Molecular target: T1, Aromatase (Homo sapiens, UniProt P11511)
T1 sequence (P11511 whole entry): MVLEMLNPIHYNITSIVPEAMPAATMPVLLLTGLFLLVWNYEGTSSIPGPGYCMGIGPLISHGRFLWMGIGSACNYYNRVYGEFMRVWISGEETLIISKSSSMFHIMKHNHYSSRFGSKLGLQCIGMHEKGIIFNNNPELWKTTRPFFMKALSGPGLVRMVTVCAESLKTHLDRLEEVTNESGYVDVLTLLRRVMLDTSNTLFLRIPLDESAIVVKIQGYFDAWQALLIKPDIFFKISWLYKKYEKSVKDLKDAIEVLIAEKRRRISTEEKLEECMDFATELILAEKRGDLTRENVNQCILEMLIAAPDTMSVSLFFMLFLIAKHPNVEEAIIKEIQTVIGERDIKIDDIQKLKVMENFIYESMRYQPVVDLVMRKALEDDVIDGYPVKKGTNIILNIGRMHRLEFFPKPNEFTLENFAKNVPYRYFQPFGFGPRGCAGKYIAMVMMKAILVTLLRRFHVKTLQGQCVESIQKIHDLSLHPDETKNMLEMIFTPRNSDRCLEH
Description: Inhibition of human aromatase

## COCOc1ccc(C(=O)/C=C/c2ccc(OCOC)c(CC=C(C)C)c2)c(O)c1
  IC50: > 242 µM

## COc1ccc(C(=O)/C=C/c2ccc(OCC=C(C)C)cc2)c(O)c1
  IC50: > 271 µM

Reference: ChEMBL document CHEMBL1143702, “Synthesis and biological evaluation of (+/-)-abyssinone II and its analogues as aromatase inhibitors for chemoprevention of breast cancer” (J Med Chem, 2007)
